Where two headings read alike, the source gives them in different places.

Our source for the IC50 values is US10828301B2, “2,4-pyrimidinediamine compounds and their uses” (Rigel Pharmaceuticals, Inc, priority 2002, dated 2020).

What all share (format): cell-based
Assay [1] relates to Jurkat cells. In words: Jurkat (T-cell) toxicity, light scatter. The note with it: Homo sapiens, 18-24 hr, flow cytometric light scatter, read-out: Toxicity Jurkat Light Scat. Here is the method:
Dilute Jurkat cells to 2×10^5 cells/ml in complete RPMI (10% heat-inactivated fetal bovine serum) media and incubate at 37° C., 5% CO2 for 18 hours. Add 65 ul cells at 7.7×10^5 cells/ml to a 96-well V-bottom plate (TC-treated, Costar) containing 65 ul 2× compound (final vehicle concentration is 0.5% DMSO, 1.5% MeOH). Mix, incubate plates for 18-24 hr at 37° C., 5% CO2. Toxicity was assessed by flow cytometric analysis of cellular light scatter
In general terms: In flow cytometry, cells or beads pass a laser one at a time.

In assay [2] the test system is B-cell line BJAB. Nature of the assay: BJAB (B-cell) toxicity, light scatter. As to conditions: Homo sapiens; BJAB B-cells, flow cytometric light scatter; read-out: Toxicity BJAB Light Scat. On the procedure: The B-cell line BJAB was cultured in log phase in RPMI1640+10% heat-inactivated fetal bovine serum, lx L-glutamine, lx penicillin, lx […] and 1× beta-mercaptoethanol at 37° C., 5% CO2. First, BJABs were harvested, spun and resuspended in culture medium to a concentration of 7.7×10^5 cells/mL. 65 uL cells were mixed with 65 uL compound, in duplicate and in the presence of 0.1% DMSO in a V-bottomed 96-well tissue culture plate. Cells were incubated with compound at various dilutions at 37° C., 5% CO2. Toxicity was assessed by flow cytometric analysis of cellular light scatter.

The test system of assay [3] is ionophore-induced degranulation of mast and/or basophil cells. Nature of the assay: Ionophore (ionomycin or A23187)-induced degranulation counter screen. As to conditions: high density BMMC, ionomycin activation, hexosaminidase release, read-out: BMMC Ionomycin Hexos. IC50. The text has this:
In addition to the FcεRI or FcγRI degranulation pathways discussed above, degranulation of mast and/or basophil cells can be induced by other agents. For example, ionomycin, a calcium ionophore that bypasses the early FcεRI or FcγRI signal transduction machinery of the cell, directly induces a calcium flux that triggers degranulation. Referring again to FIG. 2, activated PLCγ initiates pathways that lead to, among other things, calcium ion mobilization and subsequent degranulation. As illustrated, this Ca^2+ mobilization is triggered late in the FcεRI signal transduction pathway. […] Other ionophores that induce degranulation in this manner include A23187. The ability of granulation-inducing ionophores such as ionomycin to bypass the early stages of the FcεRI and/or FcγRI signaling cascades may be used as a counter screen to identify active compounds of the invention that specifically exert their degranulation-inhibitory activity by blocking or inhibiting the early FcεRI or FcγRI signaling cascades, as discussed above.
Assays suitable for determining the IC50 of ionophore-induced degranulation include any of the previously-described degranulation assays, with the modification that the cells are stimulated or activated with a degranulation-inducing calcium ionophore such as ionomycin or A23187 (A.G. Scientific, San Diego, Calif.) instead of anti-IgE antibodies or an IgE-specific allergen. Specific assays for assessing the ability of a particular 2,4-pyrimidinediamine compound of the invention to inhibit ionophore-induced degranulation are provided in the Examples section.
On the technique in general: Counterscreens check selectivity or assay interference.

In assay [4] the test system is bone marrow derived mast cells (BMMC). In words: BMMC high cell density IgE activation: degranulation (hexosiminidase, histamine), leukotriene (LTC4) and cytokine (TNFalpha, IL-6) assays. The note with it: Mus musculus, anti-IgE activation, hexosaminidase release, read-out: BMMC anti-IgE hexos IC50. On the procedure:
After sensitizing, cells are counted, pelleted (1000 rpm, 5-10 minutes), and resuspended at 1-3×10^6 cells/ml in MT buffer. Add 100 ul of cell suspension to each well and 100 ul of compound dilutions. The final vehicle concentration is 0.5% DMSO. Incubate at 37° C. (5% CO2) for 1 hour. After 1 hour of compound treatment, stimulate cells with 6× stimulus (60 ng/ml DNP-BSA). Mix wells with the cells and allow plates to incubate at 37° C. (5% CO2) for one hour. After 1 hour incubation, pellet cells (10 minutes, 1000 RPM) and collect 200 ul per well of the supernatant, being careful not to disturb pellet, and transfer to a clean tube or 96-well plate. Place the supernatant plate on ice. During the 4-5 hour step (see next) perform the hexosiminidase assay. Resuspend cell pellet in 240 ul WEI-conditioned media containing 0.5% DMSO and corresponding concentration of compound. Incubate BMMC cells for 4-5 hours at 37° C. (5% CO2). After incubation, pellet cells (1000 RPM, 10 minutes) and collect 225 ul per well and place in −80° C. until ready to perform ELISAS. ELISAS are performed on appropriately diluted samples (determined empirically for each donor cell population so that the sample measurement falls within the standard curve) following the supplier's instructions.
Add 50 uL of BMMC cell supernatant (see above) to the hexoseaminidase substrate, place at 37° C. for 30 minutes and read the plate at 5, 10, 15, and 30 minutes on a spectrophotometer.

Assay [5] relates to basophils in whole human peripheral blood. Nature of the assay: Basophil IgE activation: histamine release assay. As to conditions: anti-IgE activation. On the procedure:
The basophil activation assay was carried out using whole human peripheral blood from donors allergic to dust mites with the majority of the red blood cells removed by dextran sedimentation. Human peripheral blood was mixed 1:1 with 3% dextran T500 and RBCs were allowed to settle for 20-25 min. The upper fraction was diluted with 3 volumes of D-PBS and cells were spun down for 10 min at 1500 rpm, RT. Supernatant was aspirated and cells were washed in an equal volume MT-buffer. Finally, cells were resuspended in MT-buffer containing 0.5% DMSO in the original blood volume. 80 uL cells were mixed with 20 uL compound in the presence of 0.5% DMSO, in triplicate, in a V-bottom 96-well tissue culture plate. A dose range of 8 compound concentrations was tested resulting in a 10-point dose response curve including maximum (stimulated) and minimum (unstimulated) response. […] The cells were stimulated for 30 minutes at 37° C., 5% CO2. The plate was spun for 10 min at 1500 rpm at room temperature and 80 uL the supernatant was harvested for histamine content analysis using the histamine ELISA kit supplied by Immunotech. The ELISA was performed according to supplier's instructions.

The test system is the same in assay [6]. In words: Basophil ionomycin activation: histamine release assay. Here is the method: Assays for ionomycin-induced basophil cell degranulation were carried out as described for the Basophil IgE or Dustmite Activation Assay (Section 6.4.6, supra), with the exception that following incubation with compound, cells were stimulated with 20 μl of 2 μM ionomycin.

The subject of assay [7] is cultured human mast cells (CHMC). In words: CHMC low cell density IgE activation: tryptase and LTC4 assays. As to conditions: Homo sapiens, Mast cell, Low Density CHMC, anti-IgE activation. The method in brief: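 Cultured human mast cells at low density (1000-1500 per well) rested 1 h at 37° C, then stimulated with anti-IgE for 30 min at 37° C. Supernatant tryptase measured with fluorogenic substrate (30 min, room temperature); LTC4 quantified by ELISA on diluted supernatant.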

Assay [8] shares this test system. Nature of the assay: CHMC low cell density ionomycin activation: tryptase assay. As to conditions: Homo sapiens, Mast cell, Low Density CHMC, ionomycin activation.
Setting [9] is: hexosaminidase readout, read-out: CHMC anti-IgE Hexos.
Where [10] appears, read: hexosaminidase readout, read-out: CHMC Ionomycin Hexos.
[11] abbreviates: tryptase readout, read-out: CHMC anti-IgE Tryptase.
The mark [12] stands for this setting: tryptase readout, read-out: CHMC Ionomycin Tryptase.

With `Cc1cccc(Nc2ncc(F)c(Nc3cccc(C)c3)n2)c1` [Compound R092788, N2,N4-bis(3-methylphenyl)-5-fluoro-2,4-pyrimidinediamine], the IC50 in assay [1] and in assay [2] was above 10 µM each time.

Regarding `Fc1cnc(Nc2ccc(C(F)(F)F)cc2)nc1Nc1ccc(C(F)(F)F)cc1` [Compound R926016, N2,N4-Bis(4-trifluoromethylphenyl)-5-fluoro-2,4-pyrimidinediamine], the IC50 in assay [3] (Mus musculus), in assay [4], in assay [5] (Homo sapiens) and in assay [6] (Homo sapiens) was above 10 µM each time.

As to `COc1ccc(Nc2ncc(F)c(Nc3ccc(OC)cc3)n2)cc1` [Compound R926017, N2,N4-Bis(4-methoxyphenyl)-5-fluoro-2,4-pyrimidinediamine], the IC50 is 9.6 µM in assay [3] (Mus musculus); 1.43 µM in assay [7] (setting [9]); 1.4 µM in assay [4]; 0.53 µM in assay [5] (Homo sapiens); above 10 µM in assay [8] (setting [10]); above 10 µM in assay [6] (Homo sapiens).

As to `Fc1cc(Nc2ncc(F)c(Nc3ccc(C(F)(F)F)c(F)c3)n2)ccc1C(F)(F)F` [Compound R926018, N2,N4-Bis(3-fluoro-4-trifluoromethylphenyl)-5-fluoro-2,4-pyrimidinediamine], the IC50 is above 10 µM in assay [3] (Mus musculus), 8.5 µM in assay [4], above 10 µM in assay [5] (Homo sapiens) and 10 µM in assay [6] (Homo sapiens).

With `Fc1cnc(Nc2ccc3c(c2)OC(F)(F)C(F)(F)O3)nc1Nc1ccc2c(c1)OC(F)(F)C(F)(F)O2` [Compound R926037, N2,N4-Bis(3,4-tetrafluoroethylendioxyphenyl)-5-fluoro-2,4-pyrimidinediamine], the IC50 in assay [3], in assay [5] and in assay [6] was above 10 µM in each case.

`Fc1cnc(Nc2cccc(OC(F)(F)F)c2)nc1Nc1cccc(OC(F)(F)F)c1` [Compound R926038, N2,N4-Bis(3-trifluoromethoxyphenyl)-5-fluoro-2,4-pyrimidinediamine]: the IC50 in assay [3] (Mus musculus), in assay [4], in assay [5] (Homo sapiens) and in assay [6] (Homo sapiens) was above 10 µM in each case.

Regarding `Fc1cnc(Nc2ccc(Cl)c(C(F)(F)F)c2)nc1Nc1ccc(Cl)c(C(F)(F)F)c1` [Compound R926039, N2,N4-Bis(4-chloro-3-trifluoromethylphenyl)-5-fluoro-2,4-pyrimidinediamine], the IC50 in assay [3] (Mus musculus), in assay [4], in assay [5] (Homo sapiens) and in assay [6] (Homo sapiens) was above 10 µM throughout.

Regarding `CCOc1ccc(Nc2cc(C(=O)OC)nc(Nc3ccc(OCC)cc3)n2)cc1` [Compound R926058, N2,N4-Bis(4-ethoxyphenyl)-6-methoxycarbonyl-2,4-pyrimidinediamine], the IC50 in assay [3] (Mus musculus), in assay [4], in assay [5] (Homo sapiens) and in assay [6] (Homo sapiens) was above 10 µM each time.

As for `CN(C)c1ccc(Nc2ncc(F)c(Nc3ccc(N(C)C)cc3)n2)cc1` [Compound R926086, N2,N4-Bis[4-(N,N-dimethylamino)phenyl]-5-fluoro-2,4-pyrimidinediamine], the IC50 was 7.3 µM in assay [3] (Mus musculus), 2.8 µM in assay [4], 2.5 µM in assay [5] (Homo sapiens) and above 10 µM in assay [6] (Homo sapiens).

Take `Fc1cnc(Nc2ccc(Cl)cc2)nc1Nc1ccc(Cl)cc1` [Compound R926206, N2,N4-Bis(4-chlorophenyl)-5-fluoro-2,4-pyrimidinediamine]: the IC50 in assay [3] (Mus musculus) was 8.6 µM; in assay [4] it was 6.6 µM; in assay [5] (Homo sapiens), above 10 µM; in assay [6] (Homo sapiens), above 10 µM.

As for `Fc1cnc(Nc2cccc(Cl)c2)nc1Nc1cccc(Cl)c1` [Compound R926209, N2,N4-Bis(3-chlorophenyl)-5-fluoro-2,4-pyrimidinediamine], the IC50 in assay [3] (Mus musculus) is 9.1 µM; in assay [4], 10 µM; in assay [5] (Homo sapiens), above 10 µM; in assay [6] (Homo sapiens), above 10 µM.

With `CCOc1ccc(Nc2ncc(F)c(Nc3ccc4c(c3)OCCO4)n2)cc1` [Compound R926211, N2-(4-Ethoxyphenyl)-N4-(3,4-ethylenedioxyphenyl)-5-fluoro-2,4-pyrimidinediamine], the IC50 in assay [3] (Mus musculus) was above 10 µM; in assay [7] (setting [9]), 2.7 µM; in assay [7] (setting [11]) it was 1.3 µM; in assay [4], 3.9 µM; in assay [5] (Homo sapiens), 1.55 µM; in assay [8] (setting [10]), above 10 µM. Further, the values for the IC50 in assay [8] (setting [12]) and in assay [6] (Homo sapiens) were 9.8 µM and above 10 µM, respectively.

With `COc1ccc(Nc2ncc(F)c(Nc3ccc4c(c3)OCCO4)n2)cc1OC` [Compound R926212, N2-(3,4-Dimethoxyphenyl)-N4-(3,4-ethylenedioxyphenyl)-5-fluoro-2,4-pyrimidinediamine], the IC50 in assay [3] (Mus musculus) was 5 µM; in assay [7] (LTC4 readout, read-out: CHMC anti-IgE LTC4), 0.45 µM; in assay [7] (setting [11]) it was 0.654 µM; in assay [4] it was 0.5 µM; in assay [5] (Homo sapiens), 0.5 µM; in assay [8] (setting [12]), above 10 µM. Besides, in assay [6] (Homo sapiens), the IC50 is above 10 µM.

`CCOc1ccc(Nc2nc(Nc3ccc4c(c3)OCCO4)ncc2F)cc1` [Compound R926213, N4-(4-Ethoxyphenyl)-N2-(3,4-ethylenedioxyphenyl)-5-fluoro-2,4-pyrimidinediamine]: the IC50 in assay [7] (setting [11]) was 1.64 µM; in assay [5] (Homo sapiens), 1.75 µM; in assay [8] (setting [12]), 5.5 µM; in assay [6] (Homo sapiens), above 10 µM.
